In US8084479B2, “Thiazole compounds and methods of use” (Amgen Inc., priority 2006, dated 2011) one finds IC50 data, which are given here for 24 molecules.

Bounds are passed on as bounds.

Chain of PKBα (P31749 118-480 limits assumed): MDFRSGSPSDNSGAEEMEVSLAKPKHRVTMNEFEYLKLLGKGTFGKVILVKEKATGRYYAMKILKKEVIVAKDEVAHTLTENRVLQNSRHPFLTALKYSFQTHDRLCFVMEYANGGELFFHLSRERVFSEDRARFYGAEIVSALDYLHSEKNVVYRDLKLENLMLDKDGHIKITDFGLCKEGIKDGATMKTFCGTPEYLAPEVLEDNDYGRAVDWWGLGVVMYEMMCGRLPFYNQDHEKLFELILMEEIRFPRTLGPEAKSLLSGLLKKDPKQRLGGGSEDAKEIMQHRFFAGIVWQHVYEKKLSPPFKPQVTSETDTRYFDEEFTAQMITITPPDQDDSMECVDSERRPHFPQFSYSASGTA

The test concerns the target PKBα (Homo sapiens, UniProt P31749). Put plainly: PKB kinase assay (P33-labeled ATP, peptide substrate, filter plate). The test is classed as biochemical. The following applies: PKBα enzyme (full length or kinase domain with pleckstrin domain deleted). From the text: The kinase assay for evaluating PKB activity comprises active PKB enzymes, a PKB specific substrate, and P^33-labeled ATP. […] The phosphorylated substrate was captured by a phosphocellulose membrane filter plate (MLLIPORE) and measured by a Wallac Microbeta liquid scintillation counter (Perkin Elmer).
For `N[C@H](CNc1ncc(-c2ccc3c(c2)/C(=C/c2ccco2)C(=O)N3)s1)Cc1c[nH]c2ccccc12` (stereo in doubt) [Example 72, (E)- and (Z)-5-(2-((S)-2-amino-3-(1H-indol-3-yl)propylamino)thiazol-5-yl)-3-(furan-2-ylmethylene)indolin-2-one ditrifluoroacetates], the concentration for half-maximal inhibition (IC50) was in the range of 50 to 1000 nM.

`N[C@H](CNc1ncc(-c2ccc3c(c2)/C(=C\c2cnc[nH]2)C(=O)N3)s1)Cc1c[nH]c2ccccc12` (stereo in doubt) [Example 73, (E)-3-((1H-imidazol-5-yl)methylene)-6-(2-((S)-2-amino-3-(1H-indol-3-yl)propylamino)thiazol-5-yl)indolin-2-one ditrifluoroacetates] registered an IC50 of 50 to 1000 nM.

Turning to `Cc1n[nH]c2ccc(-c3cnc(NC[C@@H](N)Cc4ccccc4)s3)cc12` [Example 1, N—((S)-2-amino-3-phenylpropyl)-5-(3-methyl-1H-indazol-5-yl)thiazol-2-amine], the IC50 lay in the range of 50 to 1000 nM.

The molecule `Cc1n[nH]c2ccc(-c3cnc(NC[C@@H](N)Cc4c[nH]c5ccccc45)s3)cc12` [Example 2, N—((S)-2-amino-3-(1H-indol-3-yl)propyl)-5-(3-methyl-1H-indazol-5-yl)thiazol-2-amine] yielded an IC50 of 50 to 1000 nM.

Molecule `Cc1n[nH]c2ccc(-c3cnc(NC[C@@H](N)Cc4ccc(Cl)cc4)s3)cc12` [Example 3, N—((S)-2-amino-3-(4-chlorophenyl)propyl)-5-(3-methyl-1H-indazol-5-yl)thiazol-2-amine] had a 50% inhibitory concentration (IC50) of 50 to 1000 nM.

The molecule `N[C@H](CNc1ncc(-c2ccc3[nH]ncc3c2)s1)Cc1ccc(Cl)cc1` [Example 4, N—((S)-2-amino-3-(4-chlorophenyl)propyl)-5-(1H-indazol-5-yl)thiazol-2-amine] registered an IC50 of less than 50 nM.

In turn, `N[C@H](CNc1ncc(-c2ccc3cnccc3c2)s1)Cc1c[nH]c2ccccc12` [Example 5, N—((S)-2-amino-3-(1H-indol-3-yl)propyl)-5-(isoquinolin-6-yl)thiazol-2-amine] showed a half-maximal inhibitory concentration (IC50) of 50 to 1000 nM.

Consider `N[C@H](CNc1ncc(-c2ccc3cnccc3c2)s1)Cc1ccc(C(F)(F)F)cc1` [Example 6, N—((S)-2-amino-3-(4-(trifluoromethyl)phenyl)propyl)-5-(isoquinolin-6-yl)thiazol-2-amine], for which the IC50 is less than 50 nM.

Molecule `Cc1nc(NC[C@@H](N)Cc2ccccc2)sc1-c1ccc2[nH]nc(C)c2c1` [Example 7, N—((S)-2-amino-3-phenylpropyl)-4-methyl-5-(3-methyl-1H-indazol-5-yl)thiazol-2-amine] showed an IC50 of 1000 to 10000 nM.

As to `N[C@H](CNc1nc(-c2ccco2)c(-c2ccc3cnccc3c2)s1)Cc1ccc(C(F)(F)F)cc1` [Example 8, N—((S)-2-amino-3-(4-(trifluoromethyl)phenyl)propyl)-4-(furan-2-yl)-5-(isoquinolin-6-yl)thiazol-2-amine], the half-inhibitory concentration (IC50) lay in the range of 50 to 1000 nM.

Consider `N[C@H](CNc1nc(-c2ccccc2)c(-c2ccc3cnccc3c2)s1)Cc1ccc(C(F)(F)F)cc1` [Example 9, N—((S)-2-amino-3-(4-(trifluoromethyl)phenyl)propyl)-5-(isoquinolin-6-yl)-4-phenylthiazol-2-amine], for which the IC50 lay within 50 to 1000 nM.

Molecule `N[C@H](CNc1nc(CO)c(-c2ccc3cnccc3c2)s1)Cc1ccc(C(F)(F)F)cc1` [Example 10, (2-((S)-2-amino-3-(4-(trifluoromethyl)phenyl)propylamino)-5-(isoquinolin-6-yl)thiazol-4-yl)methanol] yielded an IC50 of less than 50 nM.

Turning to `Cc1n[nH]c2ccc(-c3sc(NC[C@@H](N)Cc4ccc(C(F)(F)F)cc4)nc3CO)cc12` [Example 11, (2-((S)-2-amino-3-(4-(trifluoromethyl)phenyl)propylamino)-5-(3-methyl-1H-indazol-5-yl)thiazol-4-yl)methanol], the IC50 was less than 50 nM.

For `N[C@H](CNc1nc(CO)c(-c2ccc3[nH]ncc3c2)s1)Cc1ccc(C(F)(F)F)cc1` [Example 12, (2-((S)-2-amino-3-(4-(trifluoromethyl)phenyl)propylamino)-5-(1H-indazol-5-yl)thiazol-4-yl)methanol], the IC50 is less than 50 nM.

The molecule `COCc1nc(NC[C@@H](N)Cc2ccc(C(F)(F)F)cc2)sc1-c1ccc2cnccc2c1` [Example 13, N—((S)-2-amino-3-(4-(trifluoromethyl)phenyl)propyl)-5-(isoquinolin-6-yl)-4-(methoxymethyl)thiazol-2-amine] showed an IC50 of less than 50 nM.

The molecule `COCc1nc(NC[C@@H](N)Cc2ccc(C(F)(F)F)cc2)sc1-c1ccc2[nH]ncc2c1` [Example 14, N—((S)-2-amino-3-(4-(trifluoromethyl)phenyl)propyl)-5-(1H-indazol-5-yl)-4-(methoxymethyl)thiazol-2-amine] displayed an IC50 of less than 50 nM.

In turn, `COCc1nc(NC[C@@H](N)Cc2ccc(C(F)(F)F)cc2)sc1-c1ccc2[nH]nc(C)c2c1` [Example 15, N—((S)-2-amino-3-(4-(trifluoromethyl)phenyl)propyl)-4-(methoxymethyl)-5-(3-methyl-1H-indazol-5-yl)thiazol-2-amine] displayed a 50% inhibitory concentration (IC50) of 50 to 1000 nM.

In turn, `COC(C)c1nc(NC[C@@H](N)Cc2ccc(C(F)(F)F)cc2)sc1-c1ccc2cnccc2c1` (stereo partly drawn) [Example 16, N—((S)-2-amino-3-(4-(trifluoromethyl)phenyl)propyl)-5-(isoquinolin-6-yl)-4-(1-methoxyethyl)thiazol-2-amine] showed an IC50 of 50 to 1000 nM.

As for `COCc1nc(N(C[C@@H](N)Cc2cccc(Cl)c2)C(C)=O)sc1-c1nc2ccncc2s1` [Example 17, N—((S)-2-amino-3-(3-chlorophenyl)propyl)-N-(4-(methoxymethyl)-5-(thiazolo[5,4-c]pyridin-2-yl)thiazol-2-yl)acetamide], the IC50 was 1000 to 10000 nM.

In turn, `COCc1nc(NC[C@@H](N)Cc2cccc(Cl)c2)sc1-c1nc2ccncc2s1` [Example 18, N—((S)-2-amino-3-(3-chlorophenyl)propyl)-4-(methoxymethyl)-5-(thiazolo[5,4-c]pyridin-2-yl)thiazol-2-amine] registered an IC50 of 1000 to 10000 nM.

For `COCc1nc(NC[C@@H](N)Cc2ccc(Cl)cc2)sc1-c1nc2ccncc2s1` [Example 19, N—((S)-2-amino-3-(4-chlorophenyl)propyl)-4-(methoxymethyl)-5-(thiazolo[5,4-c]pyridin-2-yl)thiazol-2-amine], the IC50 is less than 50 nM.

In the case of `N[C@H](CNc1nc(COCC(F)(F)F)c(-c2nc3ccncc3s2)s1)Cc1cccc(Cl)c1` [Example 20, N—((S)-2-amino-3-(3-chlorophenyl)propyl)-5-(thiazolo[5,4-c]pyridin-2-yl)-4-((2,2,2-trifluoroethoxy)methyl)thiazol-2-amine], the IC50 is 1000 to 10000 nM.

As for `COCc1nc(NC[C@@H](N)Cc2ccc(C(F)(F)F)cc2)sc1-c1nc2ccncc2s1` [Example 22, N—((S)-2-amino-3-(4-(trifluoromethyl)phenyl)propyl)-4-(methoxymethyl)-5-(thiazolo[5,4-c]pyridin-2-yl)thiazol-2-amine], the IC50 is less than 50 nM.

With `CCc1nc(NC[C@@H](N)Cc2ccc(C(F)(F)F)cc2)sc1-c1nc2ccncc2s1` [Example 23, N—((S)-2-amino-3-(4-(trifluoromethyl)phenyl)propyl)-4-ethyl-5-(thiazolo[5,4-c]pyridin-2-yl)thiazol-2-amine], the IC50 lay in the range of 50 to 1000 nM.

As a reminder, the IC50 is the concentration needed to halve the response being measured.
